Measurements taken from US20140323581A1, “TRANSCRIPTOME WIRING ANALYSIS IN PARKINSON'S DISEASE AND USES THEREOF” (THE TRUSTEES OF COLUMBIA UNIVERSITY IN THE CITY OF NEW YORK, priority 2011, published 2014).
Entries after “also recorded” stand apart in the source; their conditions may differ. Where two headings read alike, the source gives them in different places. *1 amine or outer side, *2 acyl side, *3 side chain or, on linkers, in order; H or OH if unused. Where a SMILES comes first, the peptide text is derived from it. Bridges are numbered along the chain shown (N, C = ends). Roman numbers before positions name the chains, in order. [ ]: non-standard residue; d: D form. Actinocin(9to1) = Cc1c2oc3c(C)ccc(C(=O)[*:1])c3nc-2c(C(=O)[*:2])c(N)c1=O; NMeV = CN[C@H](C(=O)O)C(C)C; Sar = CNCC(=O)O

Experiments:
aSynL:total ratio [1] = test: In vivo I-Dopa treatment of DAT-Cre/Dicer mice, aSynL:total ratio in brain tissue by RT-qPCR; parameters: species or system mouse
Procedure: (§1) 2-month old DAT-Cre/Dicer^flox/flox and DAT-Cre/Dicer^flox/+24 or forty-weeks old male PAC-Tg (SNCA)+/−;Snca+/− (a gift from Dr. Robert L. Nussbaum, University of California San Francisco, ^25) received 20 mg/kg I-Dopa with 12 mg/kg benserazide (or PBS vehicle only) by intraperitoneal injection daily for 5 days. […] 1 hour after the last dose, mice were anesthetized by inhaled isoflurane and the brains rapidly removed. The prefrontal cortex, striatum and midbrain were dissected out and stored at −80° C.
(§2) RT-qPCR analyses were performed as described ^60.

human aSyn protein = test: In vivo I-Dopa treatment of aSyn PAC transgenic mice, aSyn protein in brain tissue by ELISA; parameters: species or system mouse; settings: 20 mg/kg i.p. daily for 5 days
Procedure: (§3) Mitochondria were purified using Qproteome Mitochondria Isolation Kit (Qiagen) and membrane fractions were isolated using Subcellular Protein Fractionation Kit (Pierce) following manufacturers' instructions. Human aSyn protein levels were determined using the aSyn Human ELISA kit (Invitrogen). Absorbance was read on a VersaMax ELISA Microplate Reader (Molecular Devices, Inc) at 450 nm. The amount of human aSyn was normalized to total cellular protein as determined with the DC Protein Assay Reagent kit (Bio-Rad). Mitochondrial preparations were validated by Western blot analysis for Tom20 and synaptophysin (see FIG. 12d).
as §1

aSynL:total ratio [2] = test: aSynL:total ratio by RT-qPCR in rat primary cortical cultures; type: cell-based
Procedure: (§4) Cultures of rodent neurons were prepared as described in ^53. Cells were maintained in vitro for 3-5 days before drug treatments or transfection using Lipofectamine 2000 (Iinvitrogen) following manufacturer's instructions.
RT-qPCR analyses were performed as described ^60. The human aSynL:Total mRNA ratio was quantified in terms of AACt ^60 using primer pair Lh for the human long form (HaSynLfw [[…]] SEQ ID NO: 13, and HaSynLry [[…]]) SEQ ID NO: 14 and primer pair Th for human total (HaSynTfw [[…]] SEQ ID NO: 15 and HaSynTrv [[…]] SEQ ID NO: 16). For analysis of either mouse or rat, primer pairs mrL (RaSynLfw [[…]] SEQ ID NO: 17 and RaSynLrv [[…]] SEQ ID NO: 18) and mrT (RaSynTfw [[…]] SEQ ID NO: 19, RaSynTry [[…]] SEQ ID NO: 20) were used.

aSynL:total ratio [3] = test: aSynL:total ratio in total RNA of SH-SY5Y cells by RT-qPCR (transcription inhibition); type: cell-based, human
aSynL:total ratio [4] = system: aSynL:total ratio
Procedure: Total RNA was isolated using a miRNeasy kit (Qiagen) and nascent RNA was purified using the Click-iT® Nascent RNA Capture Kit (Invitrogen) following manufacturer's instructions; total and nascent RNA were then subjected to RT-qPCR analysis as below.
as §2

aSynL:total ratio [5] = test: In situ hybridization for aSyn CDS and long 3′UTR in primary cortical neuron cultures from aSyn PAC transgenic mice; type: cell-based; settings: 100 μM for 24 h, DIV 4 PAC mouse cortical neurons
Procedure: as §4
In situ hybridization were performed using QuantiGene® ViewRNA ISH Cell Assay (Panomics) following manufacturer's instructions, with QG ViewRNA TYPE 8 Probe Sets (Panomics) designed to target either human aSyn CDS sequences (bases 264-634 from NM_000345.3; Panomics) or to target human aSynL 3′UTR sequences (bases 1180-1760 from NM_000345.3).

aSyn protein [6] = test: Total endogenous aSyn protein by ELISA in SH-SY5Y cells; type: cell-based, human; settings: 100 μM for 48 h
Procedure: as §3

human aSyn 3′UTR = test: Firefly luciferase-aSyn 3′UTR reporter assay in SH-SY5Y cells; type: cell-based; settings: for dopamine-mediated increase in luciferase accumulation under VMAT2 overexpression: SH-SY5Y co-transfected with VMAT2 vector; for luciferase expression, Firefly/Renilla ratio, short aSyn 3′UTR vector: 100 μM for 24 hrs
Procedure: The human SH-SY5Y neuroblastoma cell line (ATCC) was cultured following the distributor's instructions. Cells were plated at a density of 4×10^5 cells per well (in 48-well plates) in wells coated with 0.1% gelatin (Specialty Media, Millipore) 24 hours prior to transfection. Transfections were performed with Lipofectamine 2000 reagent (Invitrogen) following the manufacturer's instructions. The human HEK-293T cell line (ATCC) was cultured in DMEM (Invitrogen) supplemented with 10% FBS (Invitrogen). Cells were plated at a density of 8×10^3 cells per well (96-well plates). Mir-34b-3p precursor, specific Anti-miR Mir-34b-3p inhibitor, Anti-miR Negative Control #1, and Pre-miR Negative Control #1 were purchased from Ambion. Cells were co-transfected with luciferase reporter plasmids and a small RNA or inhibitor (as indicated) using siPort NeoFx reagent (Ambion) following manufacturer's protocol. Luciferase and Renilla activities were measured 24 h or 48 h after transfection using Dual-Glo luciferase assay system (Promega).

aSyn translation = test: Endogenous aSyn protein by ELISA normalized to total aSyn mRNA in SH-SY5Y cells (aSyn translation); type: cell-based, human; settings: dopamine 100 uM for 24 h
Description: Mitochondria were purified using Qproteome Mitochondria Isolation Kit (Qiagen) and membrane fractions were isolated using Subcellular Protein Fractionation Kit (Pierce) following manufacturers' instructions. […] Absorbance was read on a VersaMax ELISA Microplate Reader (Molecular Devices, Inc) at 450 nm. The amount of human aSyn was normalized to total cellular protein as determined with the DC Protein Assay Reagent kit (Bio-Rad). Mitochondrial preparations were validated by Western blot analysis for Tom20 and synaptophysin (see FIG. 12d). RT-qPCR analyses were performed as described ^60. […] NO: 17 and […] NO: 18) […] NO: 19, […] NO: 20) were used. The human SH-SY5Y neuroblastoma cell line (ATCC) was cultured following the distributor's instructions. Cells were plated at a density of 4×10^5 cells per well (in 48-well plates) in wells coated with 0.1% gelatin (Specialty Media, Millipore) 24 hours prior to transfection. Transfections were performed with Lipofectamine 2000 reagent (Invitrogen) following the manufacturer's instructions. The human HEK-293T cell line (ATCC) was cultured in DMEM (Invitrogen) supplemented with 10% FBS (Invitrogen). Cells were plated at a density of 8×10^3 cells per well (96-well plates). […] Luciferase and Renilla activities were measured 24 h or 48 h after transfection using Dual-Glo luciferase assay system (Promega).

aSyn protein [7] = test: aSyn protein by ELISA in mitochondrial and membrane fractions of SH-SY5Y cells; type: cell-based, human; settings: 100 μM for 48 h
Procedure: as §3

aSyn protein [8] = test: Colocalization of aSyn and Mitotracker in primary cortical neuron cultures from PAC transgenic mice; type: cell-based; settings: primary mouse cortical neurons, 100 μM for 24 h
Procedure: as §4
Immunostainings were done as previously described ^59 with Rabbit anti-aSyn (Santa Cruz, 1:200) or Mouse anti-Synaptophysin (Millipore, 1:100) as primary antibodies, and Alexa 555 goat anti-rabbit IgG or Alexa 633 goat anti-mouse IgG (Invitrogen) secondary antibodies. MitoTracker-Orange (Invitrogen, 1:10000) was added into media for 15-20 min in living cell culture. Collocalization analyses were done in R using EBImage package; using Pearson's correlation coefficient.

aSynL:total ratio [9] = settings: GFP-aSyn wild-type 1.1 kb 3′UTR plasmid, lysed after 48 h
Procedure: Northern Blots were performed using the NorthernMax kit (Ambion) following manufacturer's instructions. 10 μg of total RNA was purified using miRNeasy kit (Qiagen) and loaded per lane.

[10] = rat primary cortical neurons, RT-qPCR, dopamine, picrotoxin, muscimol, NMDA 100 μM, kainic acid 50 μM, vs vehicle

## N[C@@H](Cc1ccc(O)c(O)c1)C(=O)O [I-Dopa]
aSynL:total ratio [1]; 2 month-old control DAT-Cre/Dicer flox/+ mice, 20 mg/kg i.p. daily for 5 days with 12 mg/kg benserazide
  aSynL:total ratio in midbrain tissue: significantly increased
aSynL:total ratio [1]; DAT-Cre/Dicer flox/flox mice deficient in mDNs, 20 mg/kg i.p. daily for 5 days
  aSynL:total ratio in midbrain tissue: did not alter
aSynL:total ratio [1]; such as striatal tissue, 20 mg/kg i.p. daily for 5 days
  aSynL:total ratio in brain regions other than midbrain: not apparent
Human aSyn protein
  human aSyn protein in midbrain (ELISA, normalized to total protein): significantly increased
  human aSyn protein in other brain regions such as striatum or cortex: not

## CN[C@H](CC(=O)O)C(=O)O [NMDA]
aSynL:total ratio [2]; [10]
  aSynL:total ratio: did not appear to impact

## Cc1c2oc3c(C)ccc(C(=O)N[C@@H]4C(=O)N[C@H](C(C)C)C(=O)N5CCC[C@H]5C(=O)N(C)CC(=O)N(C)[C@@H](C(C)C)C(=O)O[C@@H]4C)c3nc-2c(C(=O)N[C@@H]2C(=O)N[C@H](C(C)C)C(=O)N3CCC[C@H]3C(=O)N(C)CC(=O)N(C)[C@@H](C(C)C)C(=O)O[C@@H]2C)c(N)c1=O [actinomycin D] (I: T[dV]P[Sar][NMeV] / II: T[dV]P[Sar][NMeV]; ester I:1-I:C, II:1-II:C; linker I:N-II:N via Actinocin(9to1))
aSynL:total ratio [3]; actinomycin D 10 μg/mL with dopamine 100 μM, total RNA, 12 or 24 h
  dopamine-mediated increase in aSynL:total ratio: prevented the increase

## NCCc1ccc(O)c(O)c1 [dopamine]
aSynL:total ratio [2]; dopamine 10 μM for 24 hrs, cells transfected with vector encoding DAT
  aSynL:total ratio: significantly increased the sensitivity
aSynL:total ratio [2]; low extracellular dopamine 10 μM for 24 h, no DAT overexpression
  aSynL:total ratio: resistant
aSynL:total ratio [2]; [10]
  aSynL:total ratio: increase; also recorded: significantly increased
aSynL:total ratio [4]; 100 μM dopamine exclusively during the pulse-labeling period
  aSynL:total ratio among the labeled RNA population: robust and durable increase
aSynL:total ratio [4]; 100 μM dopamine exclusively post-labeling (chase)
  aSynL:total ratio among the labeled RNA population: did not produce any effect
aSynL:total ratio [4]; SH-SY5Y, dopamine
  treatment time after which the increase of the aSynL:total ratio is detectable in the nascent RNA population: ≤ 4 h
  treatment time for the dopamine effect on aSynL:total ratio to become detectable in the total RNA population: at least 16 hrs
aSynL:total ratio [4]; dopamine 100 μM with EU for 4 h, captured EU-labeled RNA
  increase in aSynL:total ratio in nascent RNA: robustly observed
aSynL:total ratio [4]; dopamine 100 μM with EU for 4 h, total RNA
  increase in aSynL:total ratio in total RNA: not in total RNA
aSynL:total ratio [3]; SH-SY5Y, dopamine 100 μM, 24 h, no actinomycin D
  aSynL:total ratio in total RNA: increase
aSynL:total ratio [5]
  aSynL:total ratio (ratio of in situ hybridization signals): increase
aSyn protein [6]
  endogenous aSyn protein levels (ELISA, normalized to total protein): significantly increased
Human aSyn 3′UTR; dopamine 100 μM for 48 h
  dopamine-mediated increase in luciferase accumulation under VMAT2 overexpression: suppressed
Human aSyn 3′UTR; dopamine 100 μM for 48 h, listed as Dopamine
  dopamine-mediated increase in luciferase accumulation under VMAT2 overexpression: cancelled
Human aSyn 3′UTR; SH-SY5Y, 100 μM for 24 h
  luciferase expression, Firefly/Renilla ratio, 1.1 kb human aSyn 3′UTR vector: increased
Human aSyn 3′UTR; SH-SY5Y
  luciferase expression, Firefly/Renilla ratio, short aSyn 3′UTR vector: not observed
Human aSyn 3′UTR; SH-SY5Y, listed as Dopamine
  luciferase expression, Firefly/Renilla ratio, short aSyn 3′UTR vector: do not influence
Human aSyn 3′UTR; SH-SY5Y, vector control, dopamine 100 μM for 48 h
  aSyn 3′UTR mediated translation (luciferase): potentiates
aSyn translation
  aSyn translation: endogenous aSyn protein (ELISA) normalized to total aSyn mRNA: significant increase
aSyn protein [7]
  aSyn content within total cell membrane fraction relative to whole cell lysate (ELISA): decreased; also recorded: reduction
  aSyn protein content in mitochondrial preparations relative to whole cell aSyn content (ELISA): increased proportion; also recorded: preferentially increased
aSyn protein [8]
  fraction of aSyn protein that colocalized with mitochondria (Mitotracker): significantly increased
aSynL:total ratio [9]
  aSynL (1070 nt 3′UTR) transcript relative to shorter (300 nt 3′UTR) transcript, Northern blot: increase

## C=C(C)[C@H]1CN[C@H](C(=O)O)[C@H]1CC(=O)O [kainic acid]
aSynL:total ratio [2]; [10]
  aSynL:total ratio: did not appear to impact
